The results in this text go back to patent publication US8124605B2, “Compositions and methods for modulating a kinase cascade” (Kinex Pharmaceuticals, LLC, priority 2007, dated 2012).

What all share (format): cell-based
One assay concerns the target T1, JAK1 (Homo sapiens, UniProt P23458).
T1 construct: U-937 cells, histiocytic lymphoma cell line; endogenous in cells; host or cells: U-937 (ATCC CRL-1593.2)
As to the kind of experiment: JAK phosphorylation/activation by flow cytometry, pSTAT6 staining in IL-4 stimulated U-937 cells. To be noted: drug 30 min, then IL-4. As for the experimental part:
(§1) The protocol used to analyze the effect of compounds of the invention on JAK phosphorylation/activation is adapted from: Krutzik and Nolan, Cytometry Part A 55A:61-70 (2003).
(§2) Briefly, U-937 cells, histiocytic lymphoma cell line; ATCC No. CRL-1593.2, were treated with compounds of the invention or commercial JAK inhibitors. Cells were then stimulated with IL-4, to engage the JAK/STAT signaling pathway. Cells were fixed with formaldehyde to “freeze” the phosphorylation states of intracellular proteins. Cells were next permeabilized, and stained with mAbs directed against the phosphorylated STAT (pSTAT) proteins. The positive shift in fluorescence due to pSTAT staining serves as a surrogate to JAK phosphorylation/activation: no flow cytometric mAbs specific to JAKs exist, so the proximal downstream signaling event, STAT phosphorylation, is measured. A decrease in fluorescence, due to drug incubation prior to IL-4 stimulation, is an indirect indication of JAK inhibition. The following antibodies were used: apSTAT5-PE: monoclonal antibody to the intracellular STAT5a protein phosphorylated at Tyrosine 694; conjugated to the fluorochrome phycoerythrin (PE); BD No. 612567 and apSTAT6-Alex647: monoclonal antibody to the intracellular STAT6 protein phosphorylated at Tyrosine 641; conjugated to the fluorochrome Alexa Fluor 647; BD No. 612601. The detailed protocol is described below:
(§3) Resuspend U-937 cells @ 8×10^5 cells/mL in complete culture medium (RPMI-1640/10% FBS).
(§4) Add 0.5 mL cell suspension to each well of 24-well tissue culture plate.
(§5) Add drug treatment (compounds, controls) for 30 min @ 37° C., 5% CO2.
(§6) Add cytokine/growth factor to stimulate; 15-30 min @ 37° C. (1 μL/0.5 mL cell suspension; IL-4, IL-2, IL-15=20 ng/mL)
(§7) Transfer cells to 5 mL Flow tubes.
(§8) Add 16% Formaldehyde directly to cell culture to obtain final concentration of 1.5% formaldehyde. (47 μL formaldehyde+0.5 mL cell culture)
(§9) Incubate cells in fixative for 15 min @ 37° C., 5% CO2.
(§10) Add 3 mL cold “Staining Media” (PBS/1% BSA) to each tube; centrifuge cells @ 1100 RPM, 3 min. Discard supernatant.
(§11) Resuspend cells with vigorous vortexing in 200 μL ice-cold Methanol.
(§12) Incubate cells on ice, 30 min.
(§13) Wash cells twice in 2 mL “Staining Medium” (centrifuge cells @ 1100 RPM, 3 min). Discard supernatant.
(§14) Add 8 μL of fluorophore-conjugated, phosphoprotein-specific mAbs to cells. Incubate cells at RT, 60 min, in the dark.
(§15) Wash cells with 4 mL Staining Media. Centrifuge cells @ 1100 RPM, 3 min. Discard supernatant.
(§16) Resuspend cells in 350 μL Staining Media.
(§17) Acquire cellular events on BD FACSCalibur cytometer.
Background: In flow cytometry, cells or beads pass a laser one at a time.

For assay [1], the system named is human colon tumor cell line HT-29. As to the kind of experiment: Cell proliferation assay (MTT assay), GI50. Conditions: HT-29, 72 h, 3 days incubation, read-out: GI50 HT29. On the procedure:
(§18) The GI50s for several of the compounds of the invention are assayed as described herein.
(§19) Cell line and culture media—the human colon tumor cell line HT-29 was obtained from Dr. Irwin Gelman (Roswell Park Cancer Institute, Buffalo, N.Y.) and maintained in McCoy's 5A medium supplemented with 2% fetal bovine serum and penicillin-streptomycin. SYF/c-Src527F cell line was also obtained from Dr. Irwin Gelman and maintained in Dulbecco's modified Eagle's medium (DMEM) supplemented with 2% bovine serum and penicillin-streptomycin. Both cell lines were incubated in an atmosphere containing 5% CO2 at 37° C.
(§20) Cell proliferation assay (MTT assay)-HT-29 (7,000 cells) and SYF/c-Src527F (4,000 cells) cells were plated in 120 μl of culture medium per well of 96-well plate. Cells were incubated overnight before drug treatment. Test compounds were diluted in culture medium in a separate 96-well plate to yield 10× concentrations of test dose (50 nM, 500 nM, 5 μM, 50 μM, and 500 μM). 13.3 μl of the 10× compound was added to each well of cells to achieve the final test concentrations (5 nM, 50 nM, 500 nM, 5 μM and 50 μM). After 3 days incubation, 10 μl of MTT (Thiazolyl Blue Tetrazolium Bromide, 5 mg/ml in PBS) was added to each well and incubate for 3 hours at 37° C. After removal of culture medium, 100 μl of isopropanol containing 40 mM HCl was added to each well and incubate for 10 minutes on a shaker to dissolve the MTT formazan. Optical density (OD) at 570 nm was then measured using microplate reader and cell growth inhibition (percentage of growth) by each concentration of drug was calculated as: % growth=100×[(T−T0)/(C−T0)] (T: OD of the test well exposure to test drug; C: OD of the control well without drug treatment; T0: OD at time zero). Growth inhibition curves and GI50 were determined using GraphPad Prism 5 statistical software.
On the technique in general: Tetrazolium dyes change colour on reduction, which living cells bring about.

For a further assay, the system named is SYF/c-Src527F cell line. As to the kind of experiment: Cell proliferation assay (MTT assay), GI50. Conditions: Mus musculus, 72 h, 3 days incubation. As for the experimental part: as §18, §19, §20
The target of the next assay is T2, JAK3 (Homo sapiens, UniProt P52333).
T2 construct: U-937 cells, histiocytic lymphoma cell line; endogenous in cells; host or cells: U-937 (ATCC CRL-1593.2)
T2 sequence (P52333 1-1124): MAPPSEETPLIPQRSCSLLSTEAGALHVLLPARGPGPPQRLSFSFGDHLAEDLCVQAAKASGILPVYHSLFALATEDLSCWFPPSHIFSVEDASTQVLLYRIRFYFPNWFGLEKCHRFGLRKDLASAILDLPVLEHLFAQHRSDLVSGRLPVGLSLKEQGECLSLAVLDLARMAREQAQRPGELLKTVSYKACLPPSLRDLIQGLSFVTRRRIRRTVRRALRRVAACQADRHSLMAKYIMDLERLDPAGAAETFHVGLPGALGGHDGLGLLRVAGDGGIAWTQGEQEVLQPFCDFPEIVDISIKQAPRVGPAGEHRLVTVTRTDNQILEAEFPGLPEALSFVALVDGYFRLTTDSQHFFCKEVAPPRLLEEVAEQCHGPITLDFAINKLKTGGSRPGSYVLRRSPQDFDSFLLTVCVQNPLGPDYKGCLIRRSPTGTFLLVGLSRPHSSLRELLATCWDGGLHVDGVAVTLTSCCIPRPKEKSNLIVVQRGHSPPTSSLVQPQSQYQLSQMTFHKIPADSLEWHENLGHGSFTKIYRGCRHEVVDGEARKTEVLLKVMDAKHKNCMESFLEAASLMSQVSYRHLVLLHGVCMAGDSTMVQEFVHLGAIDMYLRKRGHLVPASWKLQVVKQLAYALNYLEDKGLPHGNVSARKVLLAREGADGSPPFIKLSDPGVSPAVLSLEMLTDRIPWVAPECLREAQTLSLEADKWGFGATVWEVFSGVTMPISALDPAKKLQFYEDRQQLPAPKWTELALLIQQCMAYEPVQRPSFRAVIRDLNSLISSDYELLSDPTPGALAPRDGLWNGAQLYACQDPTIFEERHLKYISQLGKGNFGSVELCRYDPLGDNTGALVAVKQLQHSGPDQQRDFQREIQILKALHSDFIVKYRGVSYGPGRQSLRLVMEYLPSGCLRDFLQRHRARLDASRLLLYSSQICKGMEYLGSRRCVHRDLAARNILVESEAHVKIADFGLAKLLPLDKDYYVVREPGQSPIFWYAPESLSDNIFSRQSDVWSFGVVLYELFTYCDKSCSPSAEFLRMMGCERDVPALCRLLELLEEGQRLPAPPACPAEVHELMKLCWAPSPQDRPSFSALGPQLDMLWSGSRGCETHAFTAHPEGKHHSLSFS
As to the kind of experiment: JAK phosphorylation/activation by flow cytometry, pSTAT5 staining in IL-4 stimulated U-937 cells. Conditions: drug 30 min, then IL-4. On the procedure:
as §1, §2, §3, §4, §5, §6, §7, §8, §9, §10, §11, §12, §13, §14, §15, §16, §17

The GI50 is the concentration that inhibits growth by half.

T1 sequence (P23458 whole entry): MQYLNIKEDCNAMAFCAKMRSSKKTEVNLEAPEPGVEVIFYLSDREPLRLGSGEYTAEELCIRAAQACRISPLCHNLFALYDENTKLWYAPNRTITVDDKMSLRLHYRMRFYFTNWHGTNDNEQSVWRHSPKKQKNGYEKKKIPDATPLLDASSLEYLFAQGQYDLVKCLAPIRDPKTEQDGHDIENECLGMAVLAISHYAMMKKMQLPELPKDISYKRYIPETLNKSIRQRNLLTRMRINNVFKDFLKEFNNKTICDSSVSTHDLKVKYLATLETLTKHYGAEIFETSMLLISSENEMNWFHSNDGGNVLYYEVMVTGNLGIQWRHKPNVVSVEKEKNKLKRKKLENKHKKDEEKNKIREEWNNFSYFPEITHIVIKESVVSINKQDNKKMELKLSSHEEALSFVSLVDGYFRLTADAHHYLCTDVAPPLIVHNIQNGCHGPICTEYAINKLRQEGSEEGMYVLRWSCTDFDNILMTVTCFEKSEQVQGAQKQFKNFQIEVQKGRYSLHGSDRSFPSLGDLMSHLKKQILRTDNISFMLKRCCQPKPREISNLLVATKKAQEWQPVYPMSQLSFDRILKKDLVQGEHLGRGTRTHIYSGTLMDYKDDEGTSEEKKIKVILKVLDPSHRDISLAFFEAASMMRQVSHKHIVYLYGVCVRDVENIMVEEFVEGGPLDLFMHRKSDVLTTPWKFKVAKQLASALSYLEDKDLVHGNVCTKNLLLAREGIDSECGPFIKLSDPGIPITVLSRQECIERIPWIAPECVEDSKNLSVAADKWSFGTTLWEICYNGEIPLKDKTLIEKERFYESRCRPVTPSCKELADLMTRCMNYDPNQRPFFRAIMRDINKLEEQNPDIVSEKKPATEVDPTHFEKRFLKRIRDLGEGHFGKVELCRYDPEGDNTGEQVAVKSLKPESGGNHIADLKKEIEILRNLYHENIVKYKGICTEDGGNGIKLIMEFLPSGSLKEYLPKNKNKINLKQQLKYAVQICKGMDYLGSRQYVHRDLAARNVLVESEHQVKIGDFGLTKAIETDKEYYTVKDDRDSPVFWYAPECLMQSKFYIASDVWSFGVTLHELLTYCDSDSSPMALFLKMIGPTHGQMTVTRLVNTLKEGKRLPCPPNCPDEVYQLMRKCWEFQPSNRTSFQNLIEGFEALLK

Take `O=C(Cc1ccccc1)NCc1ccc(-c2ccccc2)cc1` [Compound 125]: at JAK1, the “JAK1 pStat6-Alexa647 Signal” value is on record as 29.48 and the “JAK1 pStat6-Alexa647 Signal/Background” value was found to be 7.05. The GI50 in assay [1] was 460 nM. In the assay with SYF/c-Src527F cell line, the GI50 was 750 nM. Moreover, on JAK3, the “JAK3 pStat5-PE Signal” value is 4.58 and the “JAK3 pStat5-PE Signal/Background” value came out at 1.56.

As for `O=C(NCCc1ccc(-c2ccccc2)cc1)c1ccccc1` [Compound 126], on JAK1, the “JAK1 pStat6-Alexa647 Signal” value is reported as 30.85 and the “JAK1 pStat6-Alexa647 Signal/Background” value was found to be 7.38. Besides, in assay [1], the GI50 was 2800 nM. Further, in the assay with SYF/c-Src527F cell line, growth was halved (GI50) at 3100 nM. Further, at JAK3, the “JAK3 pStat5-PE Signal” value is given as 5.34 and the “JAK3 pStat5-PE Signal/Background” value was 1.82.

As for `O=S(=O)(Cc1ccc(-c2ccccc2)cc1)NCc1ccccc1` [Compound 138], on JAK1, the “JAK1 pStat6-Alexa647 Signal” value stood at 28.65 and the “JAK1 pStat6-Alexa647 Signal/Background” value stood at 6.85. Moreover, the GI50 in assay [1] worked out at 13900 nM. Besides, growth with SYF/c-Src527F cell line was halved (GI50) at 1400 nM. In addition, on JAK3, the “JAK3 pStat5-PE Signal” value came out at 4.10 and the “JAK3 pStat5-PE Signal/Background” value amounted to 1.40.
